ChEMBL document CHEMBL3102731, “Structure-activity relationship studies and biological characterization of human NAD(+)-dependent 15-hydroxyprostaglandin dehydrogenase inhibitors” (Bioorg Med Chem Lett, 2014)

Experiments:
LNCaP [1] = assay: Induction of PGE2 production in human LNCAP cells at 41.9 nM to 100 uM after 16 hrs by HTRF assay relative to control; type: functional
LNCaP [2] = assay: Induction of PGE2 production in human LNCAP cells assessed as half-maximal activation concentration after 16 hrs by HTRF assay; type: functional, cell-based
A549 [3] = assay: Induction of PGE2 production in human A549 cells at 775 pM to 45.8 uM after 4 to 20 hrs by HTRF assay relative to control; type: functional
A549 [4] = assay: Induction of PGE2 production in human A549 cells assessed as concentration required for half-maximal activation after 4 to 20 hrs by HTRF assay; type: functional, cell-based
[5] = target: T1, Aldehyde dehydrogenase 1A1 (Homo sapiens, UniProt P00352); assay: Inhibition of ALDH1A1 (unknown origin) using NAD+/propionaldehyde as substrate after 15 mins by UV-fluorescence assay
T1 sequence (P00352 whole entry): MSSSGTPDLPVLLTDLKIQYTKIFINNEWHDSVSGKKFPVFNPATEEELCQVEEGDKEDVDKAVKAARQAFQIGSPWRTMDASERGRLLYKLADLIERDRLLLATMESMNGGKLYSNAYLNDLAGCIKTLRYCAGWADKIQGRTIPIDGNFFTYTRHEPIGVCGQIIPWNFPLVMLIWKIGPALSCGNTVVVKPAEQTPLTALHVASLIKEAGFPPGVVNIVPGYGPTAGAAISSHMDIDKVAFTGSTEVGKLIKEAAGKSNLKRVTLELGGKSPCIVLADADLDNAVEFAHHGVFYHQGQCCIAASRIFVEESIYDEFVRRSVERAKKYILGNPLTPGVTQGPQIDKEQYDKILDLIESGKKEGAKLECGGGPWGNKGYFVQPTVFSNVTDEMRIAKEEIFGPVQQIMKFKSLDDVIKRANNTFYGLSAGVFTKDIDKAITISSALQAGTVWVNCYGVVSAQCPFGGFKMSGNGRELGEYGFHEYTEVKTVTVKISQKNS

[6] = target: T2, Peroxisomal multifunctional enzyme type 2 (Homo sapiens, UniProt P51659); assay: Inhibition of HSD17beta4 (unknown origin) using NAD+/estradiol as substrate at 324 pM to 57.2 uM after 15 mins by UV-fluorescence assay
T2 sequence (P51659 whole entry): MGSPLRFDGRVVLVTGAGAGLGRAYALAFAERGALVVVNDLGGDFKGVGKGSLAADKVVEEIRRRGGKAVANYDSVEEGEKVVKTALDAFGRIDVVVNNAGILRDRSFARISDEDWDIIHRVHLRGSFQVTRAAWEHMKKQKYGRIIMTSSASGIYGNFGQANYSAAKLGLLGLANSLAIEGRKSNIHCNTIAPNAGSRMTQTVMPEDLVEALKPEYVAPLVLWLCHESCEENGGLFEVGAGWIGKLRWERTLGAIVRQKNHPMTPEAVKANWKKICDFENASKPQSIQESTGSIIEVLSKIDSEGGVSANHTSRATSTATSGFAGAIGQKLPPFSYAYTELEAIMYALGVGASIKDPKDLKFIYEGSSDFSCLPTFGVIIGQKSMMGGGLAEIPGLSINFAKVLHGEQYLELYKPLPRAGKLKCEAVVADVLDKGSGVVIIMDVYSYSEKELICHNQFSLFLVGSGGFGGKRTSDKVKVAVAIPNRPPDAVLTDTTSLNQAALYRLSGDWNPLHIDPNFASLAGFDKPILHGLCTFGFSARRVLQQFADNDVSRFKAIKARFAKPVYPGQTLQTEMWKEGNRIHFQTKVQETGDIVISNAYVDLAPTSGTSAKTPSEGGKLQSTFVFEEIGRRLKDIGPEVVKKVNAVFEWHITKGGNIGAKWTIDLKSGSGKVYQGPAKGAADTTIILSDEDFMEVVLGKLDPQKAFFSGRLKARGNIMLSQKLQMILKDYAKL

[7] = target: L-lactate dehydrogenase B chain (Homo sapiens, UniProt P07195); assay: Inhibition of LDHB (unknown origin) using sodium pyruvate as substrate at 0.46 to 57.5 uM after 15 mins by fluorescence assay
[8] = target: L-lactate dehydrogenase A chain (Homo sapiens, UniProt P00338); assay: Inhibition of LDHA (unknown origin) using sodium pyruvate as substrate at 0.46 to 57.5 uM after 15 mins by fluorescence assay
[9] = target: Glyceraldehyde-3-phosphate dehydrogenase (Oryctolagus cuniculus, UniProt P46406); assay: Inhibition of rabbit muscle GAPDH using glyceraldehyde-3-phosphate as substrate at 324 pM to 57.2 uM by fluorescence assay
[10] = Kinetic solubility of the compound in PBS buffer at pH 7.4; type: physicochemical
Liver microsome = assay: Half life in rat liver microsomes in presence of NADPH; type: ADME
[11] = Passive permeability of the compound at pH 7.4 by PAMPA; type: ADME
[12] = target: T3, 15-hydroxyprostaglandin dehydrogenase [NAD(+)] (Homo sapiens, UniProt P15428); assay: Inhibition of human HPGD using PGE2 as substrate after 15 mins by fluorescence assay
T3 sequence (P15428 whole entry): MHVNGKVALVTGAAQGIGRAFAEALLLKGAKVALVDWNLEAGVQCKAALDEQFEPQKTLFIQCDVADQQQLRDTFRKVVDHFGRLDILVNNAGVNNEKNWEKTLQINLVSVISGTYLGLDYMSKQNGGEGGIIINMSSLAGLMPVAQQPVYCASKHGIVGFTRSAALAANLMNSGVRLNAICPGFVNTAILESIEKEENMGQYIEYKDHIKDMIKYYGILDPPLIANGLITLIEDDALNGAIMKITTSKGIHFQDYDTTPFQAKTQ

Sequence of Glyceraldehyde-3-phosphate dehydrogenase (P46406 whole entry): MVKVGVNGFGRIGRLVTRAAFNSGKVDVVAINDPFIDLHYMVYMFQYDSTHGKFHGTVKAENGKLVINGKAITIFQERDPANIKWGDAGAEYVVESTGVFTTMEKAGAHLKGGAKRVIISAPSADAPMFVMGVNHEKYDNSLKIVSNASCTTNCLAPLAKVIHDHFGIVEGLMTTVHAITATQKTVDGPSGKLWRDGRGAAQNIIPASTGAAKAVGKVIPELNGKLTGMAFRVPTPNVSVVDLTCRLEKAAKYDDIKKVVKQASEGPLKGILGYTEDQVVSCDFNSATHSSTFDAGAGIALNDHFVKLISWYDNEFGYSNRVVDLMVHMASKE
Sequence of L-lactate dehydrogenase B chain (P07195 whole entry): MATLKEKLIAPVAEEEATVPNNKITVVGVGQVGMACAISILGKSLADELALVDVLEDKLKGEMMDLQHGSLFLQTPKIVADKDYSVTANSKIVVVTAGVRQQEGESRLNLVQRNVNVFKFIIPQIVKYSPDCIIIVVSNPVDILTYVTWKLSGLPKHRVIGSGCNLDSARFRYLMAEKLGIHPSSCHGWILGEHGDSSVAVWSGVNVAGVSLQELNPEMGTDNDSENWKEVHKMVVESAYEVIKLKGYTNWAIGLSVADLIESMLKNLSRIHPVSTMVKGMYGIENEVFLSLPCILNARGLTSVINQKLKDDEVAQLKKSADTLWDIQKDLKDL

| SMILES | Activity (LNCaP [1]) | AC50 (LNCaP [2]) | Activity (A549 [3]) | AC50 (A549 [4]) | IC50 [5] | IC50 [6] | IC50 [7] | IC50 [8] | IC50 [9] | Kinetic_solubility [10] | t1/2 (Liver microsome) | permeability [11] | IC50 [12] |
| --- | --- | --- | --- | --- | --- | --- | --- | --- | --- | --- | --- | --- | --- |
| Cc1cc(-c2nnc3n2CCCCC3)c(C)n1-c1ccc(Cl)c(Cl)c1 | 105% | 352 nM | 110% | 296 nM | 607 nM | Not Active | Not Active | Not Active | Not Active | 32 µM | 1.9 min | 1650 ×10⁻⁶ cm/s | 22 nM |
| Cc1cc(-c2nnc3n2CCCCC3)c(C)n1-c1cccc(Cl)c1 | 68% | 558 nM | 114% | 590 nM | 4820 nM | Not Active | Not Active | Not Active | Not Active | 37 µM | 2 min | 1100 ×10⁻⁶ cm/s | 34 nM |
| Cc1cc(-c2nnc3n2CCCCC3)c(C)n1-c1cccc(C(F)(F)F)c1 | 44% | 2220 nM | 145% | 2090 nM | 1520 nM | Not Active | Not Active | Not Active | Not Active | 33 µM | 1.9 min | 1510 ×10⁻⁶ cm/s | 48 nM |
| Cc1ccc(-n2c(C)cc(-c3nnc4n3CCCCC4)c2C)cc1 | 71% | 703 nM | 107% | 166 nM | 2410 nM | Not Active | Not Active | Not Active | Not Active | 28 µM | 1.8 min | 1330 ×10⁻⁶ cm/s | 34 nM |
